Article PMC9083324, “Identifying Acute Cardiac Hazard in Early Drug Discovery Using a Calcium Transient High-Throughput Assay in Human-Induced Pluripotent Stem Cell-Derived Cardiomyocytes” (Frontiers in Physiology, 2022)
Blank lines part the entries; values can stand above or below the compound they belong to.

Assays:
[1] = tested on: hiPSC-CMs (iCell Cardiomyocytes^2); experiment: Ca2+ transient assay (CTCM) with acute cardiac hazard scoring in hiPSC-CMs; conditions: for incidence of EADs / prolongation of CTD90: 3 nM
Method: Cells were pre-plated and seeded in fibronectin-coated 96-well plates at a density suited to form a monolayer and maintained in culture in a stage incubator (37°C, 5% CO2) according to the instructions of the cell provider. […] The beating monolayer was taken from frozen vials iCell Cardiomyocytes^2 (≈5 million cells/vial), which were plated onto three 96-well plates (≈50K/well).
Cells from these lot numbers were from the same donor (Apparently healthy normal, age <18) (according to FUJIFILM Cellular Dynamics).
On the day of the experiment, the culture medium in the 96-well plates containing the monolayers of hiPSC-CMs was replaced with Tyrode’s solution (Sigma, No. T2397) supplemented with 10 mM HEPES together with KCl to yield isokalemic (4.2 mM K^+) conditions.
The Ca^2+-sensitive fluorescence dye Cal-520™ AM (Cat. no.21131; AAT Bioquest) was used to capture the intracellular Ca^2+ transients in hiPSC-CMs. […] Briefly, Cal-520 was incubated for 70 min followed by a wash-out with supplemented Tyrode’s solution and a 30-min recovery before starting the experiments at 37°C. […] Compounds were added automatically using the Functional Drug Screen System (FDSS/µCell; Hamamatsu, Japan) head stage by adding 100 µl of the 2-fold concentrated compound solution to wells with hiPSC-CMs already containing a volume of 100 µl of the experimental solution, reaching the final intended test concentration in 0.1% DMSO.
The spontaneous beating activity of hiPSC-CMs was assessed through measurement of the Ca^2+ fluorescence signal integrated over the whole well. Ten minutes before starting the recordings, the experimental plates were put into the FDSS system for stabilization and a baseline recording was captured for 4 min followed by compound addition. The effect of the compounds was recorded around 30 min after compound addition. The Ca^2+ transient signals were sampled every 16 ms (frame rate of 62.5 Hz) in hiPSC-CMs maintained at 37°C during the acquisition time. […] In addition, beat rate (BR = peak count/min) and amplitude (amp = difference between max. and min of every beat) were measured, and incidence of cellular arrhythmias, e.g., EAD-like activity (considered a surrogate of TdP), cessation of beating (∼ stop beating), and below beating below quantification level (caused by low amplitude of the Ca^2+ transient or by ectopic beat: BBQL) were also recorded (Figures 1B,C).
For all individual experiments, delta percent (Δ%) at 30 min with respect to the baseline value was calculated [e.g., ∆% for CTD90 = (CTD90 30 min-CTD90 0 min)/CTD90 0 min) × 100].
TIs indicate an interval where, with a certain confidence level (1- α = 0.95), a specified proportion (p = 0.90) of a sampled population falls. […] These ΔΔ% net effects were the values obtained after normalization for baseline (Δ% vs. baseline) per well and the aggregated compound-treated wells are vehicle corrected by subtraction with the aggregated Δ% of the corresponding DMSO wells from the same plate [e.g., ΔΔ% = median Δ% drug - median Δ% DMSO]. The categorization was made first for each concentration and then aggregated per compound and test site. […] Similarly, a compound was categorized as decreased if it was in a category “decreased” in at least one of the four concentrations.
The cut-off values are net changes (ΔΔ% changes vs. baseline and vehicle), which are based on the statistical tolerance intervals (TIs) (Δ% changes vs. baseline). TIs indicate an interval where, with a certain confidence level, a specified proportion of a sampled population falls.

[2] = tested on: hiPSC-CMs (iCell Cardiomyocytes); experiment: Ca2+ transient assay (CTCM), lot-to-lot comparison in iCell Cardiomyocytes (non-square cells, Lot 103674); type: cell-based, human
Method: To investigate lot-to-lot variability in hiPSC-CMs, we tested 19 drugs with known clinical cardiac risk in other lots of iCell Cardiomyocytes^2. Fifty-five reference drugs were tested in iCell Cardiomyocytes^2 -Lot12012, 18 reference drugs were tested in iCell Cardiomyocytes^2 (Lot105091), and 18 reference drugs were tested in iCell Cardiomyocytes (Lot103674) (nonsquare cells).

[3] = tested on: IKr; set-up: method as in Liu et al., 2010; conditions: ref Liu et al., 2010; cited from earlier work
[4] = tested on: IKs; set-up: method as in Liu et al., 2010; conditions: ref Liu et al., 2010; cited from earlier work
[5] = similar among the iCell Cardiomyocytes^2 and iCell Cardiomyocytes lots
[6] = 3 nM (2-fold fCmax), n = 131 studies
[7] = updated scoring: 10 points for decrease in beat rate by ≥ −30%
[8] = over the tested concentrations (Figure 3)

hazard score [1, 5]: no hazard
Compound: CC(C)NCC(O)COc1ccc(CC(N)=O)cc1 (stereo not drawn) [Atenolol]

hazard score [1, 5]: no hazard
Compound: C[C@H](CS)C(=O)N1CCC[C@H]1C(=O)O [Captopril]

share of studies identified as high (red color) hazard score [1, 6]: 21% | share of studies identified as very high (black color) hazard score [1, 6]: 71% | share of studies identified as yellow hazard score [1, 6]: 8%
Compound: CN(CCOc1ccc(NS(C)(=O)=O)cc1)CCc1ccc(NS(C)(=O)=O)cc1 [Dofetilide]
incidence of EADs ([1]; first iCell Cardiomyocytes^2 lot (12,012)): 63% | prolongation of CTD90 ([1]; lot 10,591 (n = 28)): 330% | prolongation of CTD90 ([1]; lot 12,012 (n = 144)): 305% | incidence of EADs ([1]; second iCell Cardiomyocytes^2 lot): 71% | incidence of EADs ([2]; 3 nM, iCell Cardiomyocytes): 65% | prolongation of CTD90 ([2]; 3 nM, lot105091 as printed (n = 20)): 234%

effect on hiPSC-CMs (detection in the assay) ([1]; concentration not given): not detected
Compound: CC(C)(Oc1ccc(Cl)cc1)C(=O)NC1C2CC3CC1CC(NS(C)(=O)=O)(C3)C2 (stereo not drawn) [JNJ-303]

cessation of beating ([1]; 100 µM = 67x fCmax): some cessation of beating | hazard score ([1]; 100 µM = 67x fCmax): Red
Compound: Cc1cccc(C)c1OCC(C)N (stereo not drawn) [Mexiletine]

share of studies identified within the low and high hazard zones ([1]; 300 nM (15-fold fCmax), n = 124 studies): 95%
Compound: COCCOC(=O)C1=C(C)NC(C)=C(C(=O)OC(C)C)C1c1cccc([N+](=O)[O-])c1 (stereo not drawn) [Nimodipine]

hazard score [1, 8]: Green
Compound: O=C1NC(=O)C(c2ccccc2)(c2ccccc2)N1 [Phenytoin]

hazard score [1, 7]: low
Compound: C[N+](C)(C)CCOC(N)=O [carbachol]

cessation of beating ([1]; concentration not given): caused cessation of beating | effect on CTD90 ([1]; concentration not given): slightly shortened
Compound: CC(C)(C)c1ccc(C(O)CCCN2CCC(C(O)(c3ccccc3)c3ccccc3)CC2)cc1 (stereo not drawn) [terfenadine]

The next lines start with the compound.

Compound: [Ba+2].[Cl-].[Cl-] [BaCl2]
effect on hiPSC-CMs (detection in the assay) ([1]; concentration not given): no effect

Compound: O=C(O)COCCN1CCN(C(c2ccccc2)c2ccc(Cl)cc2)CC1 (stereo not drawn) [Cetirizine]
hazard score ([1]; 1 µM (16-fold the fCmax), numerous studies): no hazard

Compound: CC(C)(C)c1ccc(C(=O)CCCN2CCC(OC(c3ccccc3)c3ccccc3)CC2)cc1 [Ebastine]
hazard score [1, 5]: no hazard

Compound: O=C(Nc1ccc(Oc2ccccc2)cc1)c1cccc([N+](=O)[O-])c1 [ICA-105574]
effect on CTD90 ([1]; concentration not given): shortened

Compound: CC(C)NCC(O)c1ccc(O)c(O)c1 (stereo not drawn) [Isoproterenol]
share of studies identified within the low and high hazard zones ([1]; 100 nM (63-fold fCmax), n = 143 studies): 92%

Compound: COc1cc2c(cc1OC)CC(=O)N(CCCN(C)C[C@H]1Cc3cc(OC)c(OC)cc31)CC2 [Ivabradine]
hazard score [1, 7]: low

Compound: Cc1cc2c(s1)Nc1ccccc1N=C2N1CCN(C)CC1 [Olanzapine]
hazard score ([1]; highest tested concentration 100 nM (around fCmax)): not found to be with any hazard level

Compound: CCC1(c2ccccc2)C(=O)NCNC1=O [Primidone]
hazard score [1, 8]: Green

Compound: O=C(c1ccc(OCCN2CCCCC2)cc1)c1c(-c2ccc(O)cc2)sc2cc(O)ccc12 [Raloxifene]
hazard score ([1]; at >2000 folds of fCmax): red | hazard score ([1]; at ∼700–800 folds fCmax): green | IC50 [3]: 1100 nM | IC50 [4]: 4800 nM

Compound: CC(C)NCC(O)c1ccc(NS(C)(=O)=O)cc1 (stereo not drawn) [Sotalol]
EAD incidence compared to the two lots of iCell-Cardiomyocytes^2 (3 and 10 µM) ([2]; iCell Cardiomyocytes, 10 µM): much higher

Compound: Nc1ncnc2c1ncn2[C@@H]1O[C@H](CO)[C@@H](O)[C@H]1O [adenosine]
hazard score [1, 7]: low
